The results in this text go back to patent US7378387B2, “Method of suppressing immune response by reducing intracellular content of glutathione in macrophages and monocytes” (Ajinomoto Co., Inc., priority 1997, dated 2008).

Positions of bridges follow the written chain, without caps; N, C: chain ends. Residues, ends and D or L forms follow the SMILES beside them. Chains are numbered I, II in the order given.

The subject of assay [1] is reduced glutathione in intraperitoneal macrophages. The assay can be described thus: Reduced glutathione in intraperitoneal macrophages of NOD mice by ACAS (Example 22). Particulars: doses given per substance. In kind it is in vivo.
For assay [2], the system named is macrophage-like cells from tissues of rheumatoid arthritis patients. As to the kind of experiment: Intracellular GSH by ACAS in macrophage-like cells from tissues of rheumatoid arthritis patients (Example 17). In kind it is cell-based, human. Particulars: 3 hours; for relative ratio of oxidative macrophages (reduced amount of intracellular glutathione) compared with saline-added group: added at 2 mM; for induction of oxidative macrophage with the reduced amount of intracellular glutathione: added at 2 μM. Here is the method: Synovial tissue was aseptically sampled from tissues resected during joint surgery. The sampled synovial tissue was rinsed in phosphate buffer, from which the surface was peeled off in a petri dish containing the same phosphate buffer. Then, the resulting synovial tissue was cut into pieces with a pair of scissors. To the pieces were added 2% hyaluronidase (manufactured by Sigma), 0.2% DNase (derived from bovine pancreas) and 5% collagenase, for enzymatic treatment at 37° C. for 2 hours. After discarding the resulting debris, a cell fraction recovered by centrifugation was adjusted to 5×10^5 cells/ml in a phenol red-free DMEM culture medium supplemented with 10% FCS (manufactured by Nikken Biology Co.). For 3 hours, the cells were allowed to adhere to the plastic surface. Plastic surface adherent macrophage-like cells harvested with a rubber policeman were then subjected to rinsing in combination with centrifugation three times using the culture medium under ice cooling. The resulting cells were designated as synovial tissue-derived macrophages and were then subjected to the following experiments.
By the same manner as in Example 3, macrophage-like cells were collected from tissues of rheumatoid arthritis patients, and were then suspended and adjusted in a phenol red-free RPMI 1640 culture medium supplemented with 10% fetal calf serum to 3×10^6 cells/ml. The suspension was divided in 100-μl portions on Lab-Tek Chamber Slide (#136439; manufactured by NUNC, CO.), for culturing in 5% CO2 at 37° C. for 3 hours; after discarding the nonadherent cells, the 200-μl serum-free culture medium further containing any of the following chemical agents was fed to the resulting culture, for reaction for 3 hours; and then, the resulting culture was rinsed three times, followed by addition of the serum-free culture medium of 200 μl and addition of monochlorobimane to a final concentration of 10 μM, for reaction for 30 minutes. The amount of intracellular GSH was assayed by imaging analysis with an ACAS system (manufactured by Meridian Co.).

Assay [3] deals with peritoneal exudate cells (macrophages). As to the kind of experiment: Induction of oxidative or reductive macrophages by administration, monochlorobimane/ACAS (Example 9). In kind it is in vivo, DBA/2 mice. Particulars: intraperitoneally 20 μg/0.5 ml/h each, twice a week for three weeks, 9-11 weeks of age. Here is the method: This was clarified by harvesting peritoneal exudate cells 20 hours after the completion of the administration, adhering the cells to the plastic surface, then reacting the cells with 10 μM of monochlorobimane at 37° C. for 30 minutes, and analyzing the reaction product with ACAS. The increase in the amounts of oxidative macrophages can easily be determined visually from the fact that almost no reaction product with monochlorobimane is observed, namely, a gray or blue image is provided, and the increase in the amounts of reductive macrophages from the fact that a red or yellow image is provided respectively. […] Meanwhile, the same examination was conducted by harvesting peritoneal exudate cells after 20 hours of the administration of 2 mg of N-acetylcystine (NAC).

Assay [4] has as its system adjuvant-induced arthritis. The assay can be described thus: Adjuvant-induced arthritis (AA) in rats, joint swelling (Examples 18 and 19). In kind it is in vivo, Lewis rats. As to conditions: Table 4. How it is done: Adjuvant-induced arthritis was triggered in Lewis rats in a conventional manner; and the effects of chemical agents were examined in the animals. Adjuvant-induced arthritis is well known as an experimental arthritis inducible in rats [Taurog et al., Meth. Enzymol. 162, 339-355 (1988)]. […] An adjuvant is administered at 1 mg/0.1 ml per rate at a site of caudal root. The edema reaches its peak about 2 to 3 weeks after the administration of the adjuvant. The edema is triggered by inflammatory infiltration of monocytes. Swollen joints are measured with a micrometer every day; comparing the diameters of the joints prior to and after adjuvant administration and after initiation of the treatment with chemical agents with the diameters of the joints in the control group, the effects of the chemical agents were expressed as the ratio in % of joint swelling in the experimental groups to joint swelling in the control group. The effects were determined on day 15 after adjuvant administration. The chemical agents were given, starting the day next to the day of adjuvant administration, and every 3 days thereafter.
A single dose is 1 mg/kg for (NAC)2 and (NAC-OMe)2; 100 mg/kg for NAC; and 0.1 mg/kg for lentinan.
Adjuvant-induced arthritis was induced in Lewis rats in a conventional manner. In the same manner as in Example 11, the effects of chemical agents were examined in these rats. The conditions were the same as described above.

Assay [5] relates to spontaneous onset of insulin-dependent diabetes mellitus. As to the kind of experiment: Onset of diabetes mellitus in NOD mice dosed at age 9 to 11 weeks (Example 25). In kind it is in vivo. Particulars: nine times. The source says: NOD mice purchased from Nippon Clair, Co. were naturally mated together. Among the off spring mice, a colony of NOD mice with a high frequency of the spontaneous onset of insulin-dependent diabetes mellitus was established. Female NOD mice from the colony were used for the present experiment. Chemical agents were orally or intraperitoneally administered to the NOD mice aged 9 to 11 weeks three times per week, in total nine times; and based on the test results of urine glucose, positive or negative, the onset of diabetes mellitus was followed once per week. Urine glucose was detected, using Uropaper (BM Test Glucose 5000, manufactured by Yamanouchi Pharmaceuticals, Co. Ltd.). The onset was judged on week 22; the doses were the same as in Example 24.

For assay [6] the test system is unchanged. As to the kind of experiment: Onset of diabetes mellitus in NOD mice dosed at age 3 to 6 and 9 to 11 weeks (Example 24). In kind it is in vivo. Particulars: doses as in the table line, 15 times in total, judged on week 22, saline 60. The source says:
NOD mice purchased from Nippon Clair, Co. were naturally mated together. Among the off spring mice, a colony of NOD mice with a high frequency of the spontaneous onset of insulin-dependent diabetes mellitus was established. Female NOD mice from the colony were used for the present experiment. […] Urine glucose was detected, using Uropaper (BM Test Glucose 5000, manufactured by Yamanouchi Pharmaceuticals, Co. Ltd.). The onset was judged on week 22.

Assay [7] has as its system insulin-non-dependent diabetes mellitus. As to the kind of experiment: Blood sugar level in db/db mice (Example 26). In kind it is in vivo. As to conditions: intraperitoneal, age 4 to 9 weeks, three times per week; at satiation; saline 100. The source says: db/db mice purchased from Nippon Clair, Co. were naturally mated together. Among the off spring mice, a colony of db/db mice with a high frequency of the spontaneous onset of insulin-non-dependent diabetes mellitus was established. Male db/db mice from the colony were used for the present experiment. Chemical agents were intraperitoneally administered to the db/db mice aged 4 to 9 weeks three times per week, in total 18 times; and based on the level of blood sugar in the mice at satiation, the effects of the chemical agents on the improvement of the diseased conditions of insulin-non-dependent diabetes mellitus were followed once per week. The doses were the same as in Example 24.

Where [8] appears, read: intraperitoneal dosing on alternate days from age 3-4 weeks.
Setting [9] is: oral dosing on alternate days from age 3-4 weeks.
The mark [10] stands for this setting: intraperitoneal, judged on week 22, doses as in Example 24, saline 67.

On to `CC(=O)N[C@@H](CS)C(=O)OCCCCO[N+](=O)[O-]` [N-acetylcysteine nitroxybutyl ester], for which the “relative ratio of oxidative macrophages compared with saline-dosed NOD mice” value (shortened to “relative ratio … with saline-dosed NOD mice”) in assay [1] (setting [8]) and in assay [1] (setting [9]) was “same action is also observed” throughout. The “relative ratio of oxidative macrophages (reduced amount of intracellular glutathione) compared with saline-added group” value in assay [2] is reported as “same action was also observed”.

With `COC(=O)[C@H](CSSC[C@H](NC(=O)[C@H](C)N)C(=O)OC)NC(=O)[C@H](C)N` [(NAlaC-OMe)2, N,N′-di-L-alanylcystine dimethyl ester] (I: H-Ala-Cys-OMe / II: H-Ala-Cys-OMe; disulfide I:2-II:2), in assay [3], the “induction of oxidative macrophages on ACAS” value (shortened to “induction … on ACAS”) was “induction of oxidative macrophages was confirmed”. Also, the “Ratio in % of joint swelling in experimental groups to joint swelling in control group” value (shortened to “Ratio in % of joint swelling”) in assay [4] (intravenous) came out at 45%. Also, the “induction of oxidative macrophage with the reduced amount of intracellular glutathione” value in assay [2] is given as “confirmed”. Further, the “Frequency (%) of onset of diabetes mellitus” value (from here on “Frequency (%)”) in assay [5] (route not given, judged on week 22, saline 67) is given as 11%.

In the case of `CC(=O)N[C@@H](CSSC[C@H](NC(C)=O)C(=O)OCCCCO[N+](=O)[O-])C(=O)O` [N,N′-diacetylcystine nitroxybutyl ester], in assay [3], the “induction … on ACAS” value is “induction of oxidative macrophages was confirmed”. Also, in assay [2], the “induction of oxidative macrophage with the reduced amount of intracellular glutathione” value was “confirmed”.

On to `COC(=O)C(N)CCC(=O)NC(CS)C(=O)OC` (stereo not shown) [γ-glutamylcysteine dimethyl ester], for which the “relative ratio … with saline-dosed NOD mice” value in assay [1] (setting [8]) is listed as “same action is also observed”. The “Frequency (%)” value in assay [6] (intraperitoneal) is recorded as 10%. The “Frequency (%)” value in assay [6] (oral) is on record as 20%. The “Ratio in % of joint swelling” value in assay [4] (intraperitoneal, 100 mg/kg) was determined as 120%. Besides, in assay [2], the “relative ratio of oxidative macrophages (reduced amount of intracellular glutathione) compared with saline-added group” value is on record as “same action was also observed”. The “Frequency (%)” value in assay [5] (setting [10]) was 55%. Besides, in assay [7], the “Relative ratio % of blood sugar level, 6 weeks” value stood at 85%; the “Relative ratio % of blood sugar level, 7 weeks” value came out at 65%; the “Relative ratio % of blood sugar level, 8 weeks” value came to 60%.

`O=C(O)CCCC[C@@H]1CCSS1` (racemic) [lipoic acid]: the “relative ratio … with saline-dosed NOD mice” value in assay [1] (setting [8]) was “same action is also observed”.

`CC(=O)N[C@@H](CSSC[C@H](NC(C)=O)C(=O)OC(C)C)C(=O)OC(C)C` [(NAC-OiPr)2, N,N′-diacetylcystine diisopropyl ester]: the “induction … on ACAS” value in assay [3] was “induction of oxidative macrophages was confirmed”. Also, the “induction of oxidative macrophage with the reduced amount of intracellular glutathione” value in assay [2] is “confirmed”.

With glutathione nitroxybutyl ester, the “relative ratio … with saline-dosed NOD mice” value in assay [1] (setting [8]) and in assay [1] (setting [9]) was “same action is also observed” in each case. The “relative ratio of oxidative macrophages (reduced amount of intracellular glutathione) compared with saline-added group” value in assay [2] is reported as “same action was also observed”.

As to `CCOC(=O)CNC(=O)[C@H](CS)NC(=O)CC[C@H](N)C(=O)OCC` [glutathione diethyl ester], the “relative ratio … with saline-dosed NOD mice” value in assay [1] (setting [8]) and in assay [1] (setting [9]) was “same action is also observed” throughout. In addition, the “Frequency (%)” value was 0% in assay [6] (intraperitoneal), 0% in assay [6] (oral) and 67% in assay [5] (setting [10]). Also, in assay [4] (intraperitoneal, 100 mg/kg), the “Ratio in % of joint swelling” value was found to be 132%. Moreover, the “relative ratio of oxidative macrophages (reduced amount of intracellular glutathione) compared with saline-added group” value in assay [2] is “same action was also observed”. In addition, the “Relative ratio % of blood sugar level, 6 weeks” value in assay [7] worked out at 82%. In assay [7], the “Relative ratio % of blood sugar level, 7 weeks” value was 62%. In addition, the “Relative ratio % of blood sugar level, 8 weeks” value in assay [7] came to 60%.
